In ChEMBL document CHEMBL1649413, “Structure-activity relationship of 4(5)-aryl-2-amino-1H-imidazoles, N1-substituted 2-aminoimidazoles and imidazo[1,2-a]pyrimidinium salts as inhibitors of biofilm formation by Salmonella typhimurium and Pseudomonas aeruginosa” (J Med Chem, 2011):
Active and inactive are the calls of the source. No cut-off for these calls is given here.

Experiments:
Salmonella typhimurium [1] = experiment: Antibiofilm activity in Salmonella Typhimurium ATCC 14028 assessed as inhibition of biofilm formation at 25 degC after 24 hrs; type: functional, organism-based, Salmonella enterica subsp. enterica serovar Typhimurium; conditions: Salmonella enterica, ATCC 14028, 24 h
Pseudomonas aeruginosa [2] = experiment: Antibiofilm activity in Pseudomonas aeruginosa assessed as inhibition of biofilm formation at 37 degC after 24 hrs; type: functional, organism-based
Pseudomonas aeruginosa [3] = experiment: Antimicrobial activity against Pseudomonas aeruginosa assessed as inhibition of planktonic growth at 10 uM at 25 degC after 24 hrs; type: functional, organism-based
Salmonella typhimurium [4] = experiment: Antimicrobial activity against Salmonella Typhimurium ATCC 14028 assessed as inhibition of planktonic growth at 40 uM at 25 degC after 24 hrs; type: functional, organism-based; conditions: Salmonella enterica subsp. enterica serovar Typhimurium
Pseudomonas aeruginosa [5] = experiment: Antimicrobial activity against Pseudomonas aeruginosa assessed as inhibition of planktonic growth at 400 uM at 37 degC after 24 hrs; type: functional, organism-based
Salmonella typhimurium [6] = experiment: Antimicrobial activity against Salmonella Typhimurium ATCC 14028 assessed as inhibition of planktonic growth at 20 uM at 25 degC after 24 hrs; type: functional, organism-based; conditions: Salmonella enterica subsp. enterica serovar Typhimurium
Pseudomonas aeruginosa [7] = experiment: Antimicrobial activity against Pseudomonas aeruginosa assessed as inhibition of planktonic growth at 40 uM at 25 degC after 24 hrs; type: functional, organism-based
Salmonella typhimurium [8] = experiment: Antimicrobial activity against Salmonella Typhimurium ATCC 14028 assessed as inhibition of planktonic growth at 10 uM at 25 degC after 24 hrs; type: functional, organism-based; conditions: Salmonella enterica subsp. enterica serovar Typhimurium
Pseudomonas aeruginosa [9] = experiment: Antibiofilm activity in Pseudomonas aeruginosa assessed as inhibition of biofilm formation at 25 degC after 24 hrs; type: functional, organism-based
Pseudomonas aeruginosa [10] = experiment: Antimicrobial activity against Pseudomonas aeruginosa assessed as inhibition of planktonic growth at 800 uM at 37 degC after 24 hrs; type: functional, organism-based
Salmonella typhimurium [11] = experiment: Antimicrobial activity against Salmonella Typhimurium ATCC 14028 assessed as inhibition of planktonic growth at 400 uM at 37 degC after 24 hrs; type: functional, organism-based; conditions: Salmonella enterica subsp. enterica serovar Typhimurium
Salmonella typhimurium [12] = experiment: Antibiofilm activity in Salmonella Typhimurium ATCC 14028 assessed as inhibition of biofilm formation at 37 degC after 24 hrs; type: functional, organism-based, Salmonella enterica subsp. enterica serovar Typhimurium; conditions: Salmonella enterica, ATCC 14028, 24 h
Pseudomonas aeruginosa [13] = experiment: Antimicrobial activity against Pseudomonas aeruginosa assessed as inhibition of planktonic growth at 100 uM at 25 degC after 24 hrs; type: functional, organism-based
Pseudomonas aeruginosa [14] = experiment: Antimicrobial activity against Pseudomonas aeruginosa assessed as inhibition of planktonic growth at 50 uM at 25 degC after 24 hrs; type: functional, organism-based
Salmonella typhimurium [15] = experiment: Antimicrobial activity against Salmonella Typhimurium ATCC 14028 assessed as inhibition of planktonic growth at 400 uM at 25 degC after 24 hrs; type: functional, organism-based; conditions: Salmonella enterica subsp. enterica serovar Typhimurium
Pseudomonas aeruginosa [16] = experiment: Antimicrobial activity against Pseudomonas aeruginosa assessed as inhibition of planktonic growth at 20 uM at 37 degC after 24 hrs; type: functional, organism-based
Salmonella typhimurium [17] = experiment: Antimicrobial activity against Salmonella Typhimurium ATCC 14028 assessed as inhibition of planktonic growth at 25 uM at 25 degC after 24 hrs; type: functional, organism-based; conditions: Salmonella enterica subsp. enterica serovar Typhimurium
Pseudomonas aeruginosa [18] = experiment: Antimicrobial activity against Pseudomonas aeruginosa assessed as inhibition of planktonic growth at 40 uM at 37 degC after 24 hrs; type: functional, organism-based
Pseudomonas aeruginosa [19] = experiment: Antimicrobial activity against Pseudomonas aeruginosa assessed as inhibition of planktonic growth at 100 uM at 37 degC after 24 hrs; type: functional, organism-based
Salmonella typhimurium [20] = experiment: Antimicrobial activity against Salmonella Typhimurium ATCC 14028 assessed as inhibition of planktonic growth at 100 uM at 37 degC after 24 hrs; type: functional, organism-based; conditions: Salmonella enterica subsp. enterica serovar Typhimurium
Salmonella typhimurium [21] = experiment: Antimicrobial activity against Salmonella Typhimurium ATCC 14028 assessed as inhibition of planktonic growth at 4 uM at 25 degC after 24 hrs; type: functional, organism-based; conditions: Salmonella enterica subsp. enterica serovar Typhimurium
Salmonella typhimurium [22] = experiment: Antimicrobial activity against Salmonella Typhimurium ATCC 14028 assessed as inhibition of planktonic growth at 150 uM at 25 degC after 24 hrs; type: functional, organism-based; conditions: Salmonella enterica subsp. enterica serovar Typhimurium
Salmonella typhimurium [23] = experiment: Antimicrobial activity against Salmonella Typhimurium ATCC 14028 assessed as inhibition of planktonic growth at 150 uM at 37 degC after 24 hrs; type: functional, organism-based; conditions: Salmonella enterica subsp. enterica serovar Typhimurium
Salmonella typhimurium [24] = experiment: Antimicrobial activity against Salmonella Typhimurium ATCC 14028 assessed as inhibition of planktonic growth at 250 uM at 37 degC after 24 hrs; type: functional, organism-based; conditions: Salmonella enterica subsp. enterica serovar Typhimurium
Salmonella typhimurium [25] = experiment: Antimicrobial activity against Salmonella Typhimurium ATCC 14028 assessed as inhibition of planktonic growth at 25 uM at 37 degC after 24 hrs; type: functional, organism-based; conditions: Salmonella enterica subsp. enterica serovar Typhimurium
Pseudomonas aeruginosa [26] = experiment: Antimicrobial activity against Pseudomonas aeruginosa assessed as inhibition of planktonic growth at 5 uM at 25 degC after 24 hrs; type: functional, organism-based
Salmonella typhimurium [27] = experiment: Antimicrobial activity against Salmonella Typhimurium ATCC 14028 assessed as inhibition of planktonic growth at 50 uM at 37 degC after 24 hrs; type: functional, organism-based; conditions: Salmonella enterica subsp. enterica serovar Typhimurium

With `Nc1nc(-c2ccc(-c3ccccc3)cc2)c[nH]1` the IC50 (Salmonella typhimurium [1]) was 17.3 µM, the IC50 (Pseudomonas aeruginosa [2]) was 365 µM and the inhibition (Pseudomonas aeruginosa [3]) was “inactive”. The inhibition (Salmonella typhimurium [4]) was “Active”, the inhibition (Pseudomonas aeruginosa [5]) was “Active” and the inhibition (Salmonella typhimurium [6]) was “Active”. For the same compound, the inhibition (Pseudomonas aeruginosa [7]) was “inactive”, the inhibition (Salmonella typhimurium [8]) was “inactive” and the IC50 (Pseudomonas aeruginosa [9]) was 8.6 µM. For the same compound, the inhibition (Pseudomonas aeruginosa [10]) was “Active”, the inhibition (Salmonella typhimurium [11]) was “Active” and the IC50 (Salmonella typhimurium [12]) was 349 µM.
For `Nc1ncc(-c2ccc([N+](=O)[O-])cc2)[nH]1`, the IC50 (Salmonella typhimurium [1]) was 17.6 µM, the IC50 (Pseudomonas aeruginosa [2]) was 94 µM and the inhibition (Salmonella typhimurium [4]) was “Active”. The inhibition (Pseudomonas aeruginosa [13]) was “Active”, the inhibition (Pseudomonas aeruginosa [14]) was “inactive” and the inhibition (Salmonella typhimurium [15]) was “Active”. The inhibition (Salmonella typhimurium [8]) was “inactive”, the inhibition (Pseudomonas aeruginosa [16]) was “inactive” and the inhibition (Salmonella typhimurium [17]) was “inactive”. The IC50 (Pseudomonas aeruginosa [9]) was 34.5 µM, the inhibition (Salmonella typhimurium [11]) was “Active” and the inhibition (Pseudomonas aeruginosa [18]) was “inactive”. For the same compound, the IC50 (Salmonella typhimurium [12]) was 396 µM and the inhibition (Pseudomonas aeruginosa [19]) was “inactive”.
With `Nc1ncc(-c2ccccc2)[nH]1` the IC50 (Salmonella typhimurium [1]) was 130 µM, the IC50 (Pseudomonas aeruginosa [2]) was 22.7 µM and the inhibition (Salmonella typhimurium [4]) was “inactive”. The inhibition (Pseudomonas aeruginosa [13]) was “inactive”, the inhibition (Salmonella typhimurium [15]) was “Active” and the inhibition (Salmonella typhimurium [20]) was “inactive”. For the same compound, the inhibition (Salmonella typhimurium [21]) was “inactive”, the inhibition (Pseudomonas aeruginosa [16]) was “inactive” and the IC50 (Pseudomonas aeruginosa [9]) was 72.6 µM. For the same compound, the inhibition (Salmonella typhimurium [11]) was “inactive”, the inhibition (Salmonella typhimurium [22]) was “inactive” and the inhibition (Salmonella typhimurium [23]) was “inactive”. The inhibition (Pseudomonas aeruginosa [18]) was “inactive”, the inhibition (Salmonella typhimurium [24]) was “inactive” and the IC50 (Salmonella typhimurium [12]) was 146 µM. The inhibition (Pseudomonas aeruginosa [19]) was “inactive”.
In the case of `Nc1ncc(-c2ccc(Br)cc2)[nH]1`, the IC50 (Salmonella typhimurium [1]) is reported as 47.9 µM, the IC50 (Pseudomonas aeruginosa [2]) is reported as 51.3 µM and the inhibition (Salmonella typhimurium [25]) is reported as “inactive”. For the same compound, the inhibition (Pseudomonas aeruginosa [3]) was “inactive”, the inhibition (Salmonella typhimurium [4]) was “inactive” and the inhibition (Pseudomonas aeruginosa [26]) was “inactive”. For the same compound, the inhibition (Pseudomonas aeruginosa [7]) was “Active”, the inhibition (Salmonella typhimurium [15]) was “Active” and the inhibition (Salmonella typhimurium [20]) was “inactive”. For the same compound, the inhibition (Salmonella typhimurium [21]) was “inactive”, the inhibition (Pseudomonas aeruginosa [16]) was “inactive” and the inhibition (Salmonella typhimurium [27]) was “inactive”. The IC50 (Pseudomonas aeruginosa [9]) was 3.2 µM, the inhibition (Salmonella typhimurium [23]) was “inactive” and the inhibition (Pseudomonas aeruginosa [18]) was “inactive”. For the same compound, the IC50 (Salmonella typhimurium [12]) was 54.3 µM and the inhibition (Pseudomonas aeruginosa [19]) was “Active”.
